Laboratory results: PMC5830399, “Aggregating sequences that occur in many proteins constitute weak spots of bacterial proteostasis” (Nature Communications, 2018)
≈ marks a conversion by molar mass, not a printed value. Like-named read-outs stand apart in the source and are kept apart here. Peptide text beside a SMILES is read from it.

Columns and labels:
[1] = tested on: E. coli O157:H7; format: cell-based, Escherichia coli
Experimental: (§1) The MICs of active peptides were determined via the Broth microdilution assay according to the EUCAST guideline, which was performed in 96-well polystyrene flat bottom microtiter plates (BD Biosciences). Briefly, a single colony was inoculated into 5 mL LB medium and grown to the end-exponential growth phase in a shaking incubator at 37 °C. Cultures were subsequently diluted to an OD600 (optical density) of 0.002 ([…]) in fresh LB medium. One hundred microliters of LB medium with different concentration of peptides ranging from 100 to 0.75 µg/mL were serially diluted to the sterile 96-well plate (at least three wells in each plate). Afterwards, 100 µL of the diluted bacteria were pipetted into 96-well plates containing different concentration of peptides. In each plate, the grown bacteria with the maximum concentration of carrier and medium were considered as positive and negative controls, respectively. Thereafter, 96-well plates were statically incubated overnight at 37 °C to allow bacterial growth. OD was measured at 590 nm for 1 s using a multipurpose ultraviolet–visible plate reader, and the absorbance of the growth bacteria was measured using a Perkin Elmer spectrophotometer (1420 Multilabel Counter Victor 3).

[2] = tested on: E. coli O157; format: cell-based, Escherichia coli; details: HPLC-purified peptide
Text: In order to investigate whether APR redundancy does result in proteostatic collapse, we selected resynthesized and high-performance liquid chromatography (HPLC)-purified four positive peptides from the screen, P2, P5, P14, and P105, as well as three negative peptides, P3, P4, and P11, and confirmed their MIC and minimum bactericidal concentration (MBC) values (Table 1). […] These IBs, which are also called large polar aggregates, could be stained with pentameric formyl thiophene acetic acid (pFTAA, Fig. 1j and supplementary Fig. 3), an extensively characterized amyloid-specific dye[20]–[22], which specifically binds to amyloid-like aggregates as well as disease-associated protein IBs[22]. This IB-staining pattern could be observed for all bactericidal peptides, but not for any of the other peptides, although some other pFTAA-positive structures could be discerned (Supplementary Fig. 3). We confirmed the cross-β-structure content of IB using thioflavin-T staining and correlative atomic force microscopy nanoimaging and Fourier transform infrared spectroscopy (Supplementary Note 2 and Supplementary Fig. 4).

[3] = tested on: E. coli K-12 BW25113; format: cell-based, Escherichia coli
Experimental: (§2) If the bactericidal effect of P2 is indeed mediated by a loss of protein homeostasis, the cellular chaperone machinery would be expected to counteract or limit the effect of the peptide. […] To ensure that this effect was not due to the reduced overall viability of the dnaK deletion strain, we also tested the MIC value at 30 °C and obtained the same result (MIC = 6 μg/mL). This confirms that the direct inhibition of chaperones and proteases is not the principal mechanism of action of P2. […] The deletion strains with the strongest effect largely matched those found in the IBs by MS, including those of the cotranslationally acting chaperones TF (tig), dnaK (Hsp70 family), and its cochaperone dnaJ, as well as the small Hsps hchA (Hsp31), hslO (Hsp33), and ipbA (α-crystallin family). The disaggregase clpB and the aggregation-controlling protease lon also had strong effects.
as §1
Knockout chaperon strains were purchased from Dharmacon E. coli Keio knockout collection, which contains a set of single-gene deletion mutants for chaperone E. coli K-12 genes. Each deleted gene has been replaced with a kanamycin (30 μg/ mL) resistance cassette.

[4] = tested on: E. coli BL21; format: cell-based, Escherichia coli
Experimental: as §2, §1
Chaperone co-expression plasmids were purchased from Takara set (catalog# 3340), which consists of five different plasmids that contain chaperone plasmids developed by HSP Research Institute Inc. Plasmids were transformed into competent E. coli BL21. The co-expression chaperone strains are chloramphenicol selective of chaperone plasmid (20 μg/mL), and chaperone inducer depending on the chaperone plasmid used. pG-KJE8 (DnaK-dnaJ-grpE araB groES-groEL) induced by L-arabinose (0.5 mg/mL), tetracycline (1–5 ng/mL), pGro7 (groES-groEL) induced by L-arabinose (0.5 mg/mL), pKJE7 (dnaK-dnaJ-grpE) induced by L-arabinose (0.5 mg/mL), pG-Tf2 (groES-groEL-tig) induced by tetracycline (1–5 ng/mL), and pTf16 (tig) induced by L-arabinose (0.5 mg/mL).

[5] = tested on: human erythrocytes; assay: In vitro hemolytic activity test; format: cell-based; details: 1 h 37 °C
Experimental: The hemolytic activities of peptides were determined by hemolysis against human erythrocytes. Pooled fresh blood was obtained from healthy volunteers (Red Cross Flanders) and erythrocytes were collected by centrifugation 1,000 × g for 5 min (anticoagulated by EDTAK). The pellet was washed three times with phosphate-buffered saline (PBS) and was diluted to a concentration of 8% in PBS. One hundred microliters of 8% red blood cells solution was mixed with 100 µL of serial dilutions of peptides in PBS buffer in 96-well plates (BD Biosciences). The reaction mixtures were incubated for 1 h at 37 °C. Thereupon, the plate was centrifuged for 10 min at 1,000 × g and 100 µL of supernatant was transferred to a sterilized 96-well plate (BD Biosciences, flat bottom). The release of hemoglobin was determined by measuring the absorbance of the supernatant at 405 nm. […] Erythrocytes in 1% Triton and maximum used concentration of vehicle were used as the control of 100 and 0% hemolysis, respectively.

[6] = tested on: Swiss mice; assay: In vivo toxicity test; set-up: species or system mouse; details: Swiss female mice, 30 mg/kg IP once a day for 18 days (Supplementary Note 8)
Experimental: The procedures used in the assays were approved by the local Animal Ethics Committee and conform to international standards of animal welfare (Approval P067/2015 of the Ethical Committee of KULeuven). A safe concentration of peptides of […] was used for this experiment.
Briefly, 5–6-week-old Swiss females were divided into […] (six animals per group) and administered 30 mg/kg of P2 (group A) or vehicle (physiological water pH 7.5) (group B) once a day for 18 days via IP injection. During the treatment period, the clinical, physiological, and behavioral parameters, including body weight, food and water consumption, body condition score, home cage activity, and locomotion were constantly monitored and recorded.
Three days after the last administration, animals were anesthetized and blood was collected using a standard retro-orbital puncture from each animal. Next, the mice sacrificed and underwent complete necropsy with gross examination and organ weights. The organs (heart, liver, spleen, kidney, bone marrow, brain, lung) were sampled and immersed in fixative in 4% paraformaldehyde. […] Five-micrometer-thick sections taken from these blocks (Thermo Scientific Microm HM355S microtome) were then stained with hematoxylin and eosin (Leica ST5010 Autostainer XL) and evaluated under a Leica DM 2500 light microscope by a board-certified veterinary pathologist. […]

SMILES: CC(C)C[C@H](NC(=O)CNC(=O)[C@H](CCCNC(=N)N)NC(=O)[C@@H]1CCCN1C(=O)[C@H](CCCNC(=N)N)NC(=O)[C@H](CCCNC(=N)N)NC(=O)[C@@H](NC(=O)[C@H](CC(C)C)NC(=O)[C@H](C)NC(=O)[C@H](CC(C)C)NC(=O)CNC(=O)[C@H](CC(C)C)NC(=O)CNC(=O)[C@@H](N)CCCNC(=N)N)C(C)C)C(=O)NCC(=O)N[C@@H](CC(C)C)C(=O)N[C@@H](C)C(=O)N[C@@H](CC(C)C)C(=O)N[C@H](C(=O)N[C@@H](CCCNC(=N)N)C(=O)N[C@@H](CCCNC(=N)N)C(=O)O)C(C)C [P2] (H-RGLGLALVRRPRGLGLALVRR-OH)
- MIC ([1]; E. coli O157(:H7), HPLC-purified peptide, broth microdilution (EUCAST), LB, overnight 37 °C, OD 590 nm): 6 µg/mL (≈ 2.61 µM)
- IC50, concentration at which bacterial growth is 50% inhibited ([1]; E. coli O157:H7): 1.5 µg/mL (≈ 0.652 µM)
- MBC [2]: 6 µg/mL (≈ 2.61 µM)
- MIC ([3]; KEIO WT): 12 µg/mL (≈ 5.22 µM)
- MIC ([3]; dnaK deletion strain, tested at 30 °C): 6 µg/mL (≈ 2.61 µM)
- MIC ([3]; gene deletion ∆ clpA): 12 µg/mL (≈ 5.22 µM)
- MIC ([3]; gene deletion ∆ clpB): 12 µg/mL (≈ 5.22 µM)
- MIC ([3]; gene deletion ∆ clpP): 12 µg/mL (≈ 5.22 µM)
- MIC ([3]; gene deletion ∆ clpS): 12 µg/mL (≈ 5.22 µM)
- MIC ([3]; gene deletion ∆ clpX): 12 µg/mL (≈ 5.22 µM)
- MIC ([3]; gene deletion ∆ dnaJ): 12 µg/mL (≈ 5.22 µM)
- MIC ([3]; gene deletion ∆ dnaK): 6 µg/mL (≈ 2.61 µM)
- MIC ([3]; gene deletion ∆ groL): 12 µg/mL (≈ 5.22 µM)
- MIC ([3]; gene deletion ∆ hchA): 6 µg/mL (≈ 2.61 µM)
- MIC ([3]; gene deletion ∆ hslO): 12 µg/mL (≈ 5.22 µM)
- MIC ([3]; gene deletion ∆ htpG): 12 µg/mL (≈ 5.22 µM)
- MIC ([3]; gene deletion ∆ ibpA): 12 µg/mL (≈ 5.22 µM)
- MIC ([3]; gene deletion ∆ ibpB): 12 µg/mL (≈ 5.22 µM)
- MIC ([3]; gene deletion ∆ lon): 12 µg/mL (≈ 5.22 µM)
- MIC ([3]; gene deletion ∆ sulA): 12 µg/mL (≈ 5.22 µM)
- MIC ([3]; gene deletion ∆ tig): 12 µg/mL (≈ 5.22 µM)
- MIC ([4]; BL21, plasmid pG-KJE8, overexpressed dnaK-dnaJ-grpE groES-groEL): 25 µg/mL (≈ 10.9 µM)
- MIC ([4]; BL21, plasmid pG-Tf2, overexpressed groES-groEL-tig): 25 µg/mL (≈ 10.9 µM)
- MIC ([4]; BL21, plasmid pGro7, overexpressed groES-groEL): 25 µg/mL (≈ 10.9 µM)
- MIC ([4]; BL21, plasmid pKJE7, overexpressed dnaK-dnaJ-grpE): 25 µg/mL (≈ 10.9 µM)
- MIC ([4]; BL21, plasmid pTf16, overexpressed tig): 25 µg/mL (≈ 10.9 µM)
- MIC ([4]; BL21 wt, no plasmid): 25 µg/mL (≈ 10.9 µM)
- LC50, concentration inducing 50% lysis of human erythrocytes [5]: 1,100 μg/mL
- tolerability in mice [6]: tolerated P2 treatments well
